Laboratory results from US8153819B2, “Fungicidal mixtures comprising substituted 1-methylpyrazol-4-ylcarboxanilides” (BASF SE, priority 2005, dated 2012).

Legend:
[1] = tested on: Pyrenophora [syn. Drechslera] teres; assay: Activity against net blotch of barley caused by Pyrenophora teres, 1 day protective application; type: in vivo; conditions: barley seedlings sprayed 24 h before inoculation, read after 6 days, efficacy in % of untreated control (Abbot)
Procedure: (§1) The active compounds, separately or jointly, were prepared as a stock solution comprising 25 mg of active compound which was made up to 10 ml using a mixture of acetone and/or dimethyl sulfoxide and the emulsifier Uniperol® EL (wetting agent having an emulsifying and dispersing action based on ethoxylated alkylphenols) in a ratio by volume of solvent/emulsifier of 99:1. The mixture was then made up to 100 ml with water. This stock solution was diluted with the solvent/emulsifier/water mixture described to give the concentration of active compound stated below.
(§2) As an alternative, the active compounds epoxiconazole, triticonazole and pyraclostrobin were used as commercially available ready-to-use formulation and diluted to the specified active compound concentration with water.
(§3) The visually determined percentages of infected leaf areas were converted into efficacies in % of the untreated control:
The efficacy (E) is calculated as follows using Abbot's formula: E=(1−α/β)·100 α corresponds to the fungicidal infection of the treated plants in % and β corresponds to the fungicidal infection of the untreated (control) plants in % […]
(§4) The expected efficacies of active compound combinations were determined using Colby's formula (Colby, S. R. “Calculating synergistic and antagonistic responses of herbicide combinations”, Weeds, 15, 20-22, 1967) and compared with the observed efficacies. […]

Puccinia recondita = assay: Curative activity against brown rust of wheat caused by Puccinia recondita; type: in vivo; conditions: curative spray 1 day after inoculation, read after 7 days
Procedure: as §1, §2, §3
(§5) The efficacy (E) is calculated as follows using Abbot's formula: E=(1−α/β)·100 α corresponds to the fungicidal infection of the treated plants in % and β corresponds to the fungicidal infection of the untreated (control) plants in %
(§6) An efficacy of 0 means that the infection level of the treated plants corresponds to that of the untreated control plants; an efficacy of 100 means that the treated plants are not infected.
(§7) The expected efficacies of active compound combinations were determined using Colby's formula (Colby, S. R. “Calculating synergistic and antagonistic responses of herbicide combinations”, Weeds, 15, 20-22, 1967) and compared with the observed efficacies.
(§8) Colby's formula: E=x+y−x·y/100 • E expected efficacy, expressed in % of the untreated control, when using the mixture of the active compounds A and B at the concentrations a and b; • x efficacy, expressed in % of the untreated control, when using the active compound A at the concentration a; • y efficacy, expressed in % of the untreated control, when using the active compound B at the concentration b.
Leaves of potted wheat seedlings of the cultivar “Kanzler” were inoculated with a spore suspension of brown rust (Puccinia recondita). The pots were then placed in a chamber with high atmospheric humidity (90 to 95%) and 20 to 22° C. for 24 hours. During this time, the spores germinated and the germ tubes penetrated into the leaf tissue. The next day, the infected plants were sprayed to runoff point with the above-described active compound solution having the active compound concentration stated below. After the spray coating had dried on, the test plants were cultivated in a greenhouse at temperatures between 20 and 22° C. and 65 to 70% relative atmospheric humidity for 7 days. The extent of the rust fungal development on the leaves was then determined.

Botrytis cinerea = assay: Activity against gray mold on bell pepper leaves caused by Botrytis cinerea, 1 day protective application; type: in vivo; conditions: 1 day protective spray, read after 5 days
Procedure: as §1, §2, §3, §5, §6, §7, §8
Bell pepper seedlings of the cultivar “Neusiedler Ideal Elite” were, after 2-3 leaves were well developed, sprayed to runoff point with an aqueous suspension in the active compound concentration specified below. The next day, the treated plants were inoculated with a spore suspension of Botrytis cinerea which contained 1.7×10^6 spores/ml in a 2% strength aqueous biomalt solution. The test plants were then placed in a climatized chamber at 22 to 24° C., darkness and high atmospheric humidity. After 5 days, the extent of the fungal infection on the leaves could be determined visually in %.

Alternaria solani = assay: Activity against early blight of tomato caused by Alternaria solani (protective spray); type: in vivo; conditions: tomato leaves sprayed 1 day before infection, read after 5 days, efficacy in % of untreated control (Abbot)
Procedure: as §1, §2, §3, §5, §6, §4
Leaves of potted tomato plants were sprayed to runoff point with an aqueous suspension having the active compound concentration stated below. […] After 5 days, the disease on the untreated but infected control plants had developed to such an extent that the infection could be determined visually in %.

In the case of Fc1ccc([C@]2(Cn3cncn3)O[C@H]2c2ccccc2Cl)cc1 (racemic) [epoxiconazole, (2RS,3SR)-1-[3-(2-chlorophenyl)-2,3-epoxy-2-(4-fluorophenyl)propyl]-1H-1,2,4-triazole, reference compound], the “Observed activity (% infection)” value ([1]; 0.063 mg/l) is reported as 0% and the “Observed activity (% infection)” value (Puccinia recondita; 0.063 mg/l) is reported as 0%.
For CC1(C)CCC(=Cc2ccc(Cl)cc2)C1(O)Cn1cncn1 (centres unmarked) [triticonazole], the “Observed activity (% infection)” value (Botrytis cinerea; 4 mg/l) was 0% and the “Observed activity (% infection)” value (Puccinia recondita; 1 mg/l) was 0%.
With COC(=O)N(OC)c1ccccc1COc1ccn(-c2ccc(Cl)cc2)n1 [pyraclostrobin, methyl N-{2-[1-(4-chlorophenyl)-1H-pyrazol-3-yloxymethyl]phenyl}(N-methoxy)carbamate, reference compound] the “Observed activity (% infection)” value (Alternaria solani; 4 mg/l) was 50% and the “Observed activity (% infection)” value (Puccinia recondita; 1 mg/l) was 0%.
For COc1ccc(C(=CC(=O)N2CCOCC2)c2ccc(Cl)cc2)cc1OC [dimethomorph], the “Observed activity (% infection)” value (Botrytis cinerea; 4 mg/l) was 0%, the “Observed activity (% infection)” value (Botrytis cinerea; 16 mg/l) was 0% and the “Observed activity (% infection)” value (Botrytis cinerea; 63 mg/l) was 0%.
Work on Cn1nc(Cl)c(C(=O)Nc2ccccc2-c2cc(F)c(F)c(F)c2)c1CF [No. Ij. 344, N-(3′,4′,5′-trifluorobiphenyl-2-yl)-3-chlorofluoromethyl-1-methyl-1H-pyrazole-4-carboxamide] yielded a melting point of 154 to 157 °C.
For N#Cc1c(Cl)c(Cl)c(Cl)c(C#N)c1Cl [chlorthalonil, 2,4,5,6-tetrachloroisophthalonitrile, reference compound], the “Observed activity (% infection)” value (Alternaria solani; 63 mg/l) was 0% and the “Observed activity (% infection)” value (Puccinia recondita; 16 mg/l) was 0%.
Cn1cc(C(=O)Nc2ccccc2-c2cc(F)c(F)c(F)c2)c(CF)n1 [No. Ig. 344, N-(3′,4′,5′-trifluorobiphenyl-2-yl)-3-fluoromethyl-1-methyl-1H-pyrazole-4-carboxamide] gave a melting point of 152 to 156 °C.
For COc1cc(C)c(C(=O)c2c(OC)ccc(Br)c2C)c(OC)c1OC [metrafenone], the “Observed activity (% infection)” value (Botrytis cinerea; 4 mg/l) was 0%, the “Observed activity (% infection)” value (Botrytis cinerea; 16 mg/l) was 0% and the “Observed activity (% infection)” value (Botrytis cinerea; 63 mg/l) was 0%.
For Cn1cc(C(=O)Nc2ccccc2-c2cc(F)c(F)c(F)c2)c(C(F)F)n1 [No. Id.344, N-(3′,4′,5′-trifluorobiphenyl-2-yl)-3-difluoromethyl-1-methyl-1H-pyrazole-4-carboxamide], the “Observed activity (% infection)” value (Botrytis cinerea; 1 mg/l) was 40%, the “Observed activity (% infection)” value ([1]; 0.25 mg/l) was 67% and the “Observed activity (% infection)” value (Puccinia recondita; 1 mg/l) was 0%.
With “zinc ammoniate ethylenebis(dithiocarbamate) [metiram, reference compound]” the “Observed activity (% infection)” value (Botrytis cinerea; 16 mg/l) was 0% and the “Observed activity (% infection)” value (Alternaria solani; 63 mg/l) was 0%.
With Cn1nc(Cl)c(C(=O)Nc2ccccc2-c2cc(F)c(F)c(F)c2)c1C(F)F [No. Ih. 344, N-(3′,4′,5′-trifluorobiphenyl-2-yl)-3-chlorodifluoromethyl-1-methyl-1H-pyrazole-4-carboxamide] the melting point was 158 to 161 °C.
With CC1CCN(c2c(-c3c(F)cc(F)cc3F)c(Cl)nc3ncnn23)CC1 [5-chloro-7-(4-methyl-piperidin-1-yl)-6-(2,4,6-trifluorophenyl)-[1,2,4]tri-azolo[1,5-a]pyrimidine] the “Observed activity (% infection)” value (Puccinia recondita; 4 mg/l) was 40%.
